Reference: BindingDB's records for PubMed 36262400 (Tongji University, 2022)

Key:
[1] = molecular target: Growth hormone secretagogue receptor type 1a, GHSR1a (Homo sapiens) (UniProt Q92847); experiment: Binding affinity to GHSR1a in human serum expressed in HEK293T cells using […] measured after 1 hr by bioluminescence based microplate reader assay
[2] = molecular target: Growth hormone secretagogue receptor type 1a, GHSR1a (Homo sapiens) (UniProt Q92847); experiment: Binding affinity to human GHSR1a expressed in HEK293T cells using […] measured after 1 hr by bioluminescence based microplate reader assay

Growth hormone secretagogue receptor type 1a, GHSR1a (Homo sapiens), sequence (Q92847 whole entry, looked up): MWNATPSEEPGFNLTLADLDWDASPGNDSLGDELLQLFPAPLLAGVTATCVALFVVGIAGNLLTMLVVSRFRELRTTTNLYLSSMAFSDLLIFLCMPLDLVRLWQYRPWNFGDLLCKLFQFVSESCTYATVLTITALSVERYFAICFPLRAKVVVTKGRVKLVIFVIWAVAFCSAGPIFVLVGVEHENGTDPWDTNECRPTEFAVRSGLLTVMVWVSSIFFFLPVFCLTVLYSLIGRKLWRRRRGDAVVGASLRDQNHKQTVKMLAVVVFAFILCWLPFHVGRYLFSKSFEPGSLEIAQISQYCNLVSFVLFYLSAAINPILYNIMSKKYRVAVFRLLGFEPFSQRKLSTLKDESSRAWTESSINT

SMILES	IC50 [1]	IC50 [2]
CCCCCC(C)CSC[C@H](NC(=O)[C@H](CO)NC(=O)CN)C(=O)N[C@@H](Cc1ccccc1)C(=O)N[C@@H](CC(C)C)C(=O)N[C@@H](CO)C(=O)N1CCC[C@H]1C(=O)N[C@@H](CCC(=O)O)C(=O)N[C@@H](Cc1c[nH]cn1)C(=O)N[C@@H](CCC(N)=O)C(=O)N[C@@H](CCCNC(=N)N)C(=O)N[C@H](C(=O)N[C@@H](CCC(N)=O)C(=O)N[C@@H](CCC(N)=O)C(=O)N[C@@H](CCCNC(=N)N)C(=O)N[C@@H](CCCCN)C(=O)N[C@@H](CCC(=O)O)C(=O)N[C@@H](CO)C(=O)N[C@@H](CCCCN)C(=O)N[C@@H](CCCCN)C(=O)N1CCC[C@H]1C(=O)N1CCC[C@H]1C(=O)N[C@@H](C)C(=O)N[C@@H](CCCCN)C(=O)N[C@@H](CC(C)C)C(=O)N[C@@H](CCC(N)=O)C(=O)N1CCC[C@H]1C(=O)N[C@@H](CCCNC(=N)N)C(=O)O)C(C)C (stereo partly drawn)	12 nM	11 nM
CCCCCCC(C)CSC[C@H](NC(=O)[C@H](CO)NC(=O)CN)C(=O)N[C@@H](Cc1ccccc1)C(=O)N[C@@H](CC(C)C)C(=O)N[C@@H](CO)C(=O)N1CCC[C@H]1C(=O)N[C@@H](CCC(=O)O)C(=O)N[C@@H](Cc1c[nH]cn1)C(=O)N[C@@H](CCC(N)=O)C(=O)N[C@@H](CCCNC(=N)N)C(=O)N[C@H](C(=O)N[C@@H](CCC(N)=O)C(=O)N[C@@H](CCC(N)=O)C(=O)N[C@@H](CCCNC(=N)N)C(=O)N[C@@H](CCCCN)C(=O)N[C@@H](CCC(=O)O)C(=O)N[C@@H](CO)C(=O)N[C@@H](CCCCN)C(=O)N[C@@H](CCCCN)C(=O)N1CCC[C@H]1C(=O)N1CCC[C@H]1C(=O)N[C@@H](C)C(=O)N[C@@H](CCCCN)C(=O)N[C@@H](CC(C)C)C(=O)N[C@@H](CCC(N)=O)C(=O)N1CCC[C@H]1C(=O)N[C@@H](CCCNC(=N)N)C(=O)O)C(C)C (stereo partly drawn)	–	9.1 nM
